Assay results as given in patent publication US12054747B2, “Method of differentiating primordial germ cell into primordial follicle in vitro” (KYUSHU UNIVERSITY, NATIONAL UNIVERSITY CORPORATION, priority 2018, dated 2024).

Legend:
[1] = test system: oocytes in gonad of a 12.5 day-old fetus after fertilization; assay: In vitro culture of gonad in presence of PI3K inhibitor; oocyte size counted by Stella-CFP fluorescence; assay type: cell-based, mouse; details: 25 μM Ly from 6th to 16th day of culture; observed on 16th day; FIG. 6B
Procedure: First, a Transwell-COL membrane (3.0 μm pore size, 24 mm diameter) (manufactured by Corning Inc.) was set in each well of a 6-well plate, and the gonad collected in (1) were placed on a membrane. Then, 1.3 mL of medium was added to each well and culture was performed for 16 days. Also, the medium was cultured in αM2 for 4 days and then cultured in S10. In addition, the PI3K inhibitor LY294002 (hereinafter, may be abbreviated as “Ly”) (manufactured by Cell Signaling Technology, model number: 9901) was added to the medium such that a final concentration is 25 μM, during the period from the 6th day to the 16th day from the start of the culture. In addition, ICI 182,780 (7α,17β-[9-[(4,4,5,5,5-pentafluoropentyl)sulfinyl]nonyl]estra-1,3,5(10)-triene-3,17-diol) (manufactured by Tocris Bioscience) which is an estrogen receptor antagonist was added during the period from 5th to 9th day after the start of culture such that a final concentration in the medium is 500 nM. About half of the medium was replaced with a new medium every other day. In addition, as a control, those cultured in the same manner without adding Ly (cultured under a steady condition) were also prepared. The gonad on the 16th day from the start of culture were observed under a fluorescent stereomicroscope (manufactured by Olympus Corporation, model number: SZX16). In FIG. 6A, “Control” is a gonad cultured under a steady condition (in the absence of Ly), and “Ly” is a gonad cultured in the presence of the PI3K inhibitor LY294002. A scale bar represents 50 μm. Further, FIG. 6B is a graph in which the number of oocytes was counted using the expression of Stella-CFP as an index in FIG. 6A, and proportions of the oocytes smaller than 20 μm, 20 μm or larger and 50 μm or smaller, and larger than 50 μm were calculated.

[2] = test system: transcription factor Foxo3a localization in oocytes; assay: In vitro culture of gonad in presence of PI3K inhibitor with or without pressurization; Foxo3a immunostaining; assay type: cell-based, mouse; details: 25 μM Ly, oocytes of 20 μm or smaller, 16th day; for proportion of oocytes in which Foxo3a was localized in the nucleus: FIG. 8A; for proportion of oocytes in which Foxo3a was localized in the cytosol: FIG. 8B
Procedure: Specifically, first, a Transwell-COL membrane (3.0 μm pore size, 24 mm diameter) (manufactured by Corning Inc.) was set in each well of a 6-well plate, and the gonad collected in (1) were placed on a membrane. Then, 1.3 mL of medium was added to each well and culture was performed for 16 days. For artificial pressurization, AGP-3001S (registered trademark) manufactured by STREX was used to apply a hydrostatic pressure of 33.33 kPa, during the period from the 6th day to the 16th day from the start of the culture. In addition, Ly was added to the medium such that a final concentration is 25 μM, during the period from the 6th day to the 16th day from the start of the culture. Also, the medium was cultured in αM2 for 4 days and then cultured in S10. In addition, ICI 182,780 (7α,17β-[9-[(4,4,5,5,5-pentafluoropentyl)sulfinyl]nonyl]estra-1,3,5(10)-triene-3,17-diol) (manufactured by Tocris Bioscience) which is an estrogen receptor antagonist was added during the period from 5th to 9th day after the start of culture such that a final concentration in the medium is 500 nM. About half of the medium was replaced with anew medium every other day. As a control, those cultured in the same manner in the presence of Ly without pressurization were also prepared. In the gonad cultured in (2), a tissue section of the gonad was prepared by using the same method as in (1) of Reference Example 1. Then, the tissue section of the gonad obtained in (3) was immunohistochemically stained using the same method as in (4) of Example 1. […] In FIG. 7, “No Press (0 kPa)” is a gonad cultured in the presence of Ly without pressurization. “Press (33.3 kPa)” is a gonad cultured under the artificially pressurized condition and in the presence of Ly. a and e are staining images for CFP expressed under the control of the expression of the germ cell marker Stella. b and f are immunostaining images using an antibody against a transcription factor Foxo3α. c and g are immunostaining images using an antibody against the MVH of the germ cell marker. d is an image in which a nuclear-staining image using DAPI is superimposed on the staining images in a to c. h is an image in which a nuclear-staining image using DAPI is superimposed on the staining images in e to g. A scale bar represents 10 μm. Further, FIG. 8A is a graph obtained by calculating a proportion of oocytes in which the transcription factor Foxo3a is localized in the nucleus, from the immunostaining image using the antibody against the transcription factor Foxo3a in FIG. 7. FIG. 8B is a graph obtained by calculating a proportion of oocytes in which the transcription factor Foxo3a is localized in a cytosol, from the immunostaining image using the antibody against the transcription factor Foxo3a in FIG. 7.

[3] = artificially pressurized condition (33.33 kPa)

O=c1cc(N2CCOCC2)oc2c(-c3ccccc3)cccc12 [Ly, LY294002]
proportion of oocytes having a size larger than 50 μm [1]: about 23% | proportion of oocytes having a size smaller than 20 μm in total oocytes [1]: about 29% | proportion of oocytes with a size of 20 μm or larger and 50 μm or smaller [1]: about 48% | proportion of oocytes in which Foxo3a was localized in the nucleus [2, 3]: about 82% | proportion of oocytes in which Foxo3a was localized in the cytosol [2, 3]: about 18% | proportion of oocytes in which Foxo3a was localized in the nucleus ([2]; without pressurization (0 kPa)): about 52% | proportion of oocytes in which Foxo3a was localized in the cytosol ([2]; without pressurization (0 kPa)): about 48%
